Legend:
[1] = biological target: T1, HIV reverse transcriptase (Human immunodeficiency virus type 1 group M subtype B, UniProt P03366); assay: Gel-based single-nucleotide-incorporation and control assays with HIV RT (Example 4); type: biochemical, HIV-1; conditions: for control experiment with a mismatch sequence: A against A P1T4 (12), G against A P1T4 (9), T against C P1T2 (10), C against T P1T1 (11); for conversion to a n+1 strand: 60 min, 500 μM nucleotide concentration, P1T2 (9), P1T4 (10), P2T4 (11); for incorporation with blunt ended duplex: primer P1, template A
T1 construct: performed for the enzyme HIV reverse transcriptase (GE Healthcare, 30 U/4 stock solution); purchased GE Healthcare
Description: End-labeled primers were annealed to their template by combining primer and templates in a molar ratio of 1:2 and heating the mixture to 70° C. for 10 minutes, followed by slow cooling to room temperature over a period of 2.5 hours. For the incorporation of L-Asp-dGMP (9), L-Asp-dTMP (10), L-Asp-dCMP (11), and N-Me-Asp-dAMP (12) (see FIG. 13), the primer P1 was annealed to templates T1, T2, T4 or A and P2 was annealed to T4. A series of 20 μL reactions was performed for the enzyme HIV reverse transcriptase (GE Healthcare, 30 U/4 stock solution). The final mixture contained 125 nM primer-template complex, RT buffer (250 mM TrisHCl, 250 mM KCl, 50 mM MgCl2, 2.5 mM spermidine, 50 mM DTT, pH 8.3), 0.03 U/μL HIV RT and different amino acid phosphoramidates building blocks concentrations. In the control reaction with the natural nucleotide, 10 μM or 50 μM dGTP, dTTP, dATP or dCTP were used. The mixture was incubated at 37° C. […] and aliquots were quenched after 5, 10, 20, 30, 60 and 120 minutes respectively.
(§1) All polymerase reactions (3 μL) were quenched by the addition of 10 μL of loading buffer (90% formamide, 0.05% bromophenol blue, 0.05% xylene cyanol and 50 mM EDTA). Samples were heated at 70° C. for 5 minutes prior to analysis by electrophoresis for 2-3 hours at 2000 V on a 0.4 mm 20% denaturing gel in the presence of a 100 mM Tris-borate, 2.5 mM EDTA buffer, pH 8.3. Products were visualized by phosphor imaging. The amount of radioactivity in the bands corresponding to the products of enzymatic reactions was determined by using the Optiquant image analysis software (Perkin Elmer).

[2] = biological target: T2, HIV reverse transcriptase (HIV RT) (Human immunodeficiency virus type 1 group M subtype B, UniProt P03366); assay: Single nucleotide incorporation by HIV RT, gel-based, P1/T1 (Examples 2-3); type: biochemical, HIV-1; conditions: single nucleotide incorporation, FIG. 4
T2 construct: HIV RT polymerase was purchased from GE Healthcare; purchased GE Healthcare (Amersham Bioscience)
Description: A typical single nucleotide incorporation and primer extension assays using HIV RT polymerase was carried out similar to one described in the literature. HIV RT polymerase was purchased from GE Healthcare and was supplied as either 12 or 30 U/μL stock solution. The final concentration of HIV RT in a reaction mixture was 0.03-0.003 U/μL. A primer/template duplex mixture was prepared by combining appropriate amounts of a 5′-^33P-labeled primer (P1) and a template in 1:2 molar ratio to provide a 4× solution with 0.5 μM primer concentration. The polymerase reactions were carried out in a 5×RT buffer containing 250 mM TRIS.HCL, 250 mM KCl, 50 mM MgCl2, 2.5 mM spermidine, 50 mM DTT, pH 8.3. For the single nucleotide incorporation assay, a P1/T1 primer-template pair was used whereas the primer extension study was performed with P1/T3 and P1/T5 primer-template pairs.
Briefly, a mixture containing 5 μL of the 4× primer/DNA duplex solution and 5 μL of 4× polymerase solution was pre-incubated at 37° C. for 2 minutes to ensure formation a DNA polymerase/DNA duplex complex. Simultaneously, 2× solutions of dNTP to provide final concentrations of 100 μM, 200 μM, 500 μM and 1 mM were also pre-incubated at 37° C. for 2 minutes as well. The polymerase reaction in a total volume of 20 μL was initiated by addition of 10 μL of the 2× dNTP solution to the DNA polymerase/DNA duplex mixture. The reactions were run at 37° C. and aliquots (2.5 μL) were removed at specified time points and mixed with 10 μL of a quenching buffer containing 80% formamide, 2 mM EDTA, 1×TBE. Quenched reactions were analyzed by loading 2 μL of a reaction sample onto a 20% denaturing polyacrylamide:gel (19:1 acrylamide:bisacrylamide, 7M urea, 0.4 mm×30 cm×40 cm) made in 1×TBE buffer (90 mM Tris-borate, 2 mM EDTA, pH 8.3). The gel was pre-equilibrated for 2 hours before loading and the reactions were run along with a tracking dye marker containing bromophenol blue (BB) and xylene cyanol (XC) until the BB dye had run ⅔ of the total gel length. For visualization, gels were scanned using a Cyclone Phosphoroimager.

[3] = biological target: T3, HIV-1 Reverse Transcriptase (Human immunodeficiency virus type 1 group M subtype B, UniProt P03366); assay: Single incorporation into P1T1 by HIV-1 Reverse Transcriptase (Examples 6, 7, 9); type: biochemical; conditions: 2 hours, 1 mM concentration
T3 construct: performed with the enzyme HIV-1 RT (Ambion, 10 U/μL stock solution); purchased Ambion
Description: HIV-1 Reverse Transcriptase serves, in the HIV-1 viral replication process, as a catalyst and uses deoxynucleotides as substrates. This polymerase is error-prone and thus has a high mutation rate. Here, we evaluated the capacity to incorporate a deoxyadenosine nucleoside into the primer-template complex P1T1 using HIV-1 RT, and some of the above described illustrative compounds of the invention, carrying different leaving groups, as substrates. The initial screening was carried out using a template with an overhang of one thymidine nucleotide followed by three non-pyrimidine bases (Table 1). Incorporation efficiency was analysed by the polyacrylamide gel-based single nucleotide incorporation assay.
End-labeled primer was annealed to its template by combining primer and template in a molar ratio of 1:2 and heating the mixture to 70° C. for 10 minutes followed by slow cooling to room temperature over a period of 1.5 hour. For the incorporation of 1, 2, 3, 4, 5 and 6, a series of 20 μL-batch reactions was performed with the enzyme HIV-1 RT (Ambion, 10 U/μL stock solution, specific activity 8.095 U/mg, concentration 1.2 mg/mL). The final mixture contained 125 nM primer template complex, RT buffer (250 mM Tris.HCl, 250 mM KCl, 50 mM MgCl2, 2.5 mM spermidine, 50 mM dithiothreitol (DTT); pH 8.3), 0.025 U/μL HIV-1 RT, and different concentrations of phosphoramidate or phosphodiester building blocks (1 mM, 500 μM, 200 μM and 100 μM respectively). In the case of the aromatic phosphate-modified nucleosides 23 and 24, the range of concentrations was limited to 1 mM. In the control reaction with the natural nucleotide, a 10 μM dATP concentration was used. The mixture was incubated at 37° C. and 2.5 μL aliquots were quenched after 5, 10, 20, 30, 60 and 120 minutes.

[4] = biological target: T1, HIV reverse transcriptase; assay: Steady-state kinetic assay of Asp-dNMP incorporation by HIV RT (Example 4); type: biochemical, HIV-1; conditions: 37° C.; P1-T2, P1-T4 or P2T4
Description: To determine the kinetic parameters of the incorporation of Asp-dGMP (9), Asp-dTMP (10), Asp-dCMP (11) or dGTP, dTTP, dCTP, a steady-state kinetic assay was carried out. The reaction mixture was started by adding HIV reverse transcriptase to P1-T2, P1-T4 or P2T4 complex, buffer and Asp-dGMP, Asp-dTMP, Asp-dCMP or dGTP, dTTP, dCTP. The final mixture (20 μL) contained 0.015 or 0.0075 U/μL HIV reverse transcriptase, buffer, 125 nM primer-template complex and various concentrations of Asp-dNMP or dNTP. A concentration range of 0.01-1 mM was used for Asp-dNPM and a concentration range of 0.1-10 μM was used for dNTP. Reactions were incubated at 37° C. Reaction times were between 1 and 120 minutes. The kinetic constants Vmax and KM were determined from a Michaëlis-Menten plot, using GraphPad Prism version 3.02.
as §1

[5] = biological target: T1, HIV reverse transcriptase; assay: Gel-based single-nucleotide-incorporation and control assays with HIV RT (Example 4); type: biochemical, HIV-1; conditions: P1/T2, compound 9 alone
[6] = biological target: T4, HIV RT (Human immunodeficiency virus type 1 group M subtype B, UniProt P03366); assay: Steady state kinetics of single nucleotide incorporation by HIV RT (P1/T1); type: biochemical, HIV-1; conditions: P1/T1, 37° C.
T4 construct: HIV RT polymerase was purchased from GE Healthcare; purchased GE Healthcare (Amersham Bioscience)
Description: The steady steate kinetics of a single nucleotide incorporation of an amino acid phosphoramidate (AA-dAMP) and of a natural nucleoside triphosphate (dATP) was determined by the gel-based polymerase assay. In all the experiments, the template T1 and the primer P1 were used (Table 1). The primer and template in 1:2 molar ratio were hybridized in a buffer containing 20 mM TRIS.HCl, 10 mM KCl, 2 mM MgSO4, 0.1% Triton X-100, pH 8.8 and used in an amount to provide 125 nM concentration of the primer in each 12 μL reaction. The range of concentrations for amino acid phosphoramidates was optimized according to a Km value for the incorporation of an individual nucleotide. In the case of HIV RT (Amersham Bioscience (GE Healthcare), 30 U/μL), reaction mixtures containing the enzyme in concentration to attain 5-20% conversion and appropriate substrate concentration (nucleoside phosphoramidate or natural dNTP) were incubated at 37° C. and run for 8-10 different time intervals. Kinetic analysis of single nucleotide incorporation by Therminator DNA polymerase (NEB, 2 U/μL) was performed similarly except the incubations and polymerase reactions, which were carried out at 70° C. To prevent solvent condensation/evaporation, the reaction mixtures were topped with mineral oil. The reactions were quenched by addition of the buffer containing 80% formamide, 2 mM EDTA, 1×TBE buffer. The analysis of polymerase reactions was performed by polyacrylamide gel electrophoresis (20% (19:1 mono:bis), 7M urea, 30 cm×40 cm×0.4 mm). The relative band intensities were measured using OptiQuant software. The rates of incorporation (V) were calculated based on the percentage of the extension production (n+1 band). The kinetic parameters (Vmax and Km) were determined by plotting V (pmol/min·U) versus substrate concentration and fitting the data point to a rectangular hyperbola using GraphPad Prism software.

SMILES | control experiment with a mismatch sequence [1] | conversion to a n+1 strand [1] [%] | incorporation with blunt ended duplex [1] | Km [4] [µM] | Vmax [4] [pmolmin^−1U] | also measured
CN(C(CC(=O)O)C(=O)O)P(=O)(O)OC[C@H]1O[C@@H](n2cnc3c(N)ncnc32)C[C@@H]1O (stereo partly drawn) [Compound 12, 2′-Deoxyadenosine-5′-N-methylaspartyl phosphoramidate] | misincorporated against adenine |  |  |  |  | base-pairing selectivity of incorporation ([1]; P1/T1): without base-pairing selectivity; substrate quality for HIV-RT ([1]; P1/T1): good substrate
CC(NP(=O)(O)OC[C@H]1O[C@@H](n2cnc3c(N)ncnc32)C[C@@H]1O)C(=O)O (stereo partly drawn) [Compound 4, 2′-deoxy-adenosine-5′-alanyl-phosphoramidate] |  |  |  |  |  | fold reduction in primer extension [2]: 7 fold
Nc1ncnc2c1ncn2[C@H]1C[C@H](O)[C@@H](COP(=O)(O)Oc2ccc(C(=O)O)c(C(=O)O)c2)O1 [Compound 24, 2′-deoxyadenosine-5′-(4-hydroxy-phthalic acid) phosphodiester] |  |  |  |  |  | conversion to an n+1 strand [3]: 13%
Cc1cn([C@H]2C[C@H](O)[C@@H](COP(=O)(O)N[C@@H](CC(=O)O)C(=O)O)O2)c(=O)[nH]c1=O [Compound 10, 2′-Deoxythymidine-5′-aspartyl phosphoramidate] | primer elongation was not observed | 95 | none of these compounds incorporated at all | 288 ± 61.7 | 2.33 ± 0.22 | 
Nc1ccn([C@H]2C[C@H](O)[C@@H](COP(=O)(O)OP(=O)(O)OP(=O)(O)O)O2)c(=O)n1 [dCTP, reference compound] |  |  |  | 3.74 ± 0.95 | 5.62 ± 0.80 | 
Nc1nc2c(ncn2[C@H]2C[C@H](O)[C@@H](COP(=O)(O)N[C@@H](CC(=O)O)C(=O)O)O2)c(=O)[nH]1 [Compound 9, 2′-Deoxyguanosine-5′-aspartyl phosphoramidate] | primer elongation was not observed | 92 | none of these compounds incorporated at all | 169 ± 27.9 | 2.143 ± 0.13 | n+1 conversion (incorporation) ([5]; 4 hours (same as at 2 hours)): 95%; misincorporation ([5]; four hours): no misincorporation was observed
Cc1cn([C@H]2C[C@H](O)[C@@H](COP(=O)(O)OP(=O)(O)OP(=O)(O)O)O2)c(=O)[nH]c1=O [dTTP, reference compound] |  |  |  | 0.53 ± 0.07 | 30.82 ± 1.44 | 
Nc1nc2c(ncn2[C@H]2C[C@H](O)[C@@H](COP(=O)(O)OP(=O)(O)OP(=O)(O)O)O2)c(=O)[nH]1 [dGTP, reference compound] |  |  |  | 0.54 ± 1.55 | 28.81 ± 1.55 | 
Nc1ncnc2c1ncn2[C@H]1C[C@H](O)[C@@H](COP(=O)(O)OP(=O)(O)OP(=O)(O)O)O1 [dATP, reference compound] |  |  |  |  |  | Km [6]: 0.46 ± 0.15 µM; Vmax [6]: 8.39 ± 0.82 pmol/min · U
Nc1ccn([C@H]2C[C@H](O)[C@@H](COP(=O)(O)N[C@@H](CC(=O)O)C(=O)O)O2)c(=O)n1 [Compound 11, 2′-Deoxycytidine-5′-aspartyl phosphoramidate] | primer elongation was not observed | 82 | none of these compounds incorporated at all | 131 ± 19.8 | 0.59 ± 0.04 | 

— patent US8242087B2, “Phosphate modified nucleosides useful as substrates for polymerases and as antiviral agents” (priority 2007, dated 2012)
